Experiment in all cases: NCI anticancer screen, dose series, 48 h
The subject of test [1] is NCI-H23 lung.
For test [2], the system named is NCI-H522 lung.
Test [3] deals with A498 renal.
Test [4] concerns SF-268 CNS.
For test [5], the system named is NCI-H460 lung.
Test [6] deals with ACHN renal.
The test system of test [7] is CCRF-CEM leukemia.
In test [8] the test system is HT29 colon.
Test [9] has as its system LOX IMVI melanoma.
In test [10] the test system is HOP-62 NSCLC.

Structures are written as SMILES.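 Five compound concentrations were applied to cells in 96-well plates for 48 hours; endpoints were derived by simple linear interpolation of the resulting dose-response curve. At the GI50, growth is halved. At the TGI there is no net growth.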 Some results are limits rather than exact numbers.

As for `O=C(C[C@@H](C(=O)NCc1cccc(C(F)(F)F)c1)N1C(=O)[C@@H](N2C(=O)OC[C@@H]2c2ccccc2)[C@H]1/C=C/c1ccccc1)NC1CCN(Cc2ccccc2)CC1`, the GI50 in test [1] is 4.19 µM; in test [2] it was 2.81 µM; in [3], 2.19 µM; in test [4], 3.81 µM; in test [5], 6.58 µM; in test [6], 31.2 µM. In addition, the GI50 is 2.79 µM in test [7], 1.67 µM in test [8], 4.03 µM in test [9] and 14.5 µM in [10]. The TGI in test [1] was 17.6 µM; in test [2], 13.2 µM; in test [3], 11.9 µM; in [4], 21.4 µM; in test [5] it was 21.8 µM; in test [6], over 100 µM. The TGI was found to be 7.84 µM in test [7], 3.53 µM in [8], 18.9 µM in test [9] and 27.7 µM in test [10].

For the compound `C[C@]12CC[C@@H]3c4ccc(Oc5nc(N6CC6)nc(N6CC6)n5)cc4CC[C@H]3[C@@H]1CCC2=O`, the GI50 was 3.36 µM in test [1]; 1.91 µM in test [2]; 1.88 µM in test [3]; 2.05 µM in test [4]; 0.517 µM in [5]; 1.13 µM in test [6]. Moreover, the GI50 in test [7] was 1.6 µM; in test [8] it was 4.39 µM; in test [9], 1.37 µM; in [10], 2.23 µM. The TGI amounted to 19 µM in [1]; 4.57 µM in [2]; 5.79 µM in test [3]; 17.9 µM in test [4]; 2.79 µM in test [5]; 13 µM in test [6]. Also, the TGI in test [7] amounted to 16.2 µM; in test [8], 19.4 µM; in test [9], 3.1 µM; in test [10] it was 15.4 µM.

For the compound `COc1ccc(-n2c(SCc3cc(OC)c(OC)c(OC)c3)nc3ccc(C)cc3c2=O)cc1`, the GI50 in test [1] was 32.7 µM; in test [2] it was 4.41 µM; in test [3], 1.95 µM; in [4], 55.2 µM; in [5], 3.83 µM; in test [6] it was 42.9 µM. Besides, the GI50 was 1.58 µM in test [7], 4.3 µM in test [8], 17.2 µM in [9] and 29.1 µM in [10]. In addition, the TGI was over 100 µM in test [1]; over 100 µM in test [2]; 16.9 µM in test [3]; over 100 µM in [4]; over 100 µM in test [5]; over 100 µM in test [6]. Also, the TGI in test [7], in test [8], in test [9] and in [10] was over 100 µM each time.

Turning to `COc1ccc(OC(=O)O[C@H]2[C@H](O[C@H]3[C@@H](O)COC(O[C@H]4C[C@H]5[C@@H]6CC=C7C[C@@H](O)CC[C@]7(C)[C@H]6CC[C@]5(C)[C@H]4[C@H](C)C(=O)CCC(C)C)[C@@H]3OC(C)=O)OC[C@@H](O)[C@@H]2O)cc1` (stereo not given in full), the GI50 in test [1] is 0.966 µM; in test [2] it was 0.165 µM; in [3], 0.0116 µM; in [4], 0.042 µM; in test [5] it was 0.0524 µM; in test [6] it was 0.496 µM. Also, the GI50 is under 0.01 µM in [7], 0.541 µM in test [8], 0.0265 µM in [9] and 0.0569 µM in test [10]. The TGI in [1] is 19.1 µM; in test [2] it was 2.1 µM; in test [3], 0.0559 µM; in test [4], 6.99 µM; in test [5], 3.33 µM; in [6], 18 µM. The TGI turned out to be 0.145 µM in [7], 18.1 µM in test [8], 0.177 µM in test [9] and 11.4 µM in test [10].

As to `COc1ccc(/C(=N/Nc2ccc([N+](=O)[O-])cc2)Sc2cc(Cl)c(C)cc2S(N)(=O)=O)cc1`, the GI50 is 4.69 µM in [1]; 13.1 µM in test [2]; 0.107 µM in test [3]; 6.66 µM in test [4]; 5.55 µM in [5]; 6.34 µM in test [6]. Also, the GI50 in test [7] was 6.45 µM; in test [8] it was 2.91 µM; in test [9], 3.68 µM; in test [10], 5.94 µM. The TGI in test [1] was determined as 9.77 µM; in test [2] it was 38.1 µM; in [3] it was 2.68 µM; in test [4] it was 19.9 µM; in test [5], 24.2 µM; in test [6], 17.5 µM. In addition, the TGI in test [7] stood at 33.9 µM; in [8], 6.89 µM; in [9], 10.4 µM; in test [10], 16.4 µM.

With `COC(=O)C(=O)C(C(=O)C(=O)Nc1ccc(C)cc1C)c1nc2ccccc2[nH]c1=O` (stereo not given), the TGI was over 100 µM in test [1]; 93 µM in test [2]; 58.8 µM in test [3]; over 100 µM in test [4]; over 100 µM in test [5]; over 100 µM in test [6]. The TGI in [7], in test [8], in [9] and in test [10] was over 100 µM each time.

As for `COc1ccc(C(=O)/C=C/c2cccnc2Nc2cc(OC)c(OC)c(OC)c2)cc1`, the GI50 in test [1] was 2.24 µM; in test [2], 0.93 µM; in [3], 1.8 µM; in test [4], 3.04 µM; in [5], 1.84 µM; in test [6] it was 1.9 µM. Also, the GI50 in [7] is 0.711 µM; in test [8] it was 0.38 µM; in test [9], 0.738 µM; in [10] it was 2.19 µM. Also, the TGI in test [1] worked out at 17.6 µM; in [2], 2.65 µM; in test [3] it was 13.1 µM; in [4] it was 14.8 µM; in [5] it was 8.57 µM; in test [6], 4.06 µM. Besides, the TGI in [7] turned out to be 6.15 µM; in test [8], 1.6 µM; in [9], 2.28 µM; in test [10], 12.7 µM.

These data come from PubChem BioAssay (NCI).
